# Test system: SEM cells
# Test: cell viability relative to DMSO control; higher = less cytotoxic
# Conditions: 48 h
# Procedure, shortened: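 Three leukemia lines were tested: NOMO1 and SEM at 500 cells/well and P12-Ichikawa at 1000 cells/well. Each was adapted for at least four passages in each medium and seeded in 5 μl in 1536-well plates, and library compounds in DMSO were pin-dosed from 47 μM to 0.79 nM in 11 threefold steps. After 48 h at 37°C, CellTiter-Glo One luminescence was read. Viability is a percentage relative to DMSO wells on each plate, with cell-free wells as background.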
# [1] = HPLM + 10% dialyzed FBS, 0.000781 µM
# [2] = HPLM + 10% dialyzed FBS, 0.00234 µM
# [3] = HPLM + 10% dialyzed FBS, 0.00702 µM
# [4] = HPLM + 10% dialyzed FBS, 0.0211 µM
# [5] = HPLM + 10% dialyzed FBS, 0.0632 µM
# [6] = HPLM + 10% dialyzed FBS, 0.19 µM
# [7] = HPLM + 10% dialyzed FBS, 0.569 µM
# [8] = HPLM + 10% dialyzed FBS, 1.71 µM
# [9] = HPLM + 10% dialyzed FBS, 5.12 µM
# [10] = HPLM + 10% dialyzed FBS, 15.4 µM
# [11] = HPLM + 10% dialyzed FBS, 46.1 µM
# [12] = RPMI 5 mM glucose + 10% FBS, 0.000781 µM
# [13] = RPMI 5 mM glucose + 10% FBS, 0.00234 µM
# [14] = RPMI 5 mM glucose + 10% FBS, 0.00702 µM
# [15] = RPMI 5 mM glucose + 10% FBS, 0.0211 µM
# [16] = RPMI 5 mM glucose + 10% FBS, 0.0632 µM
# [17] = RPMI 5 mM glucose + 10% FBS, 0.19 µM
# [18] = RPMI 5 mM glucose + 10% FBS, 0.569 µM
# [19] = RPMI 5 mM glucose + 10% FBS, 1.71 µM
# [20] = RPMI 5 mM glucose + 10% FBS, 5.12 µM
# [21] = RPMI 5 mM glucose + 10% FBS, 15.4 µM
# [22] = RPMI 5 mM glucose + 10% FBS, 46.1 µM
# [23] = RPMI 5 mM glucose + 10% dialyzed FBS, 0.000781 µM
# [24] = RPMI 5 mM glucose + 10% dialyzed FBS, 0.00234 µM
# [25] = RPMI 5 mM glucose + 10% dialyzed FBS, 0.00702 µM
# [26] = RPMI 5 mM glucose + 10% dialyzed FBS, 0.0211 µM
# [27] = RPMI 5 mM glucose + 10% dialyzed FBS, 0.0632 µM
# [28] = RPMI 5 mM glucose + 10% dialyzed FBS, 0.19 µM
# [29] = RPMI 5 mM glucose + 10% dialyzed FBS, 0.569 µM
# [30] = RPMI 5 mM glucose + 10% dialyzed FBS, 1.71 µM
# [31] = RPMI 5 mM glucose + 10% dialyzed FBS, 5.12 µM
# [32] = RPMI 5 mM glucose + 10% dialyzed FBS, 15.4 µM
# [33] = RPMI 5 mM glucose + 10% dialyzed FBS, 46.1 µM
SMILES,cell viability [1],cell viability [2],cell viability [3],cell viability [4],cell viability [5],cell viability [6],cell viability [7],cell viability [8],cell viability [9],cell viability [10],cell viability [11],cell viability [12],cell viability [13],cell viability [14],cell viability [15],cell viability [16],cell viability [17],cell viability [18],cell viability [19],cell viability [20],cell viability [21],cell viability [22],cell viability [23],cell viability [24],cell viability [25],cell viability [26],cell viability [27],cell viability [28],cell viability [29],cell viability [30],cell viability [31],cell viability [32],cell viability [33]
CC(=O)N1CCN(c2ccc(OCc3nn(C)c(C)c3-c3cccc4c(CCCOc5cc(C)c(Cl)c(C)c5)c(C(=O)O)n(Cc5cccnc5)c34)cc2)CC1,78.5%,91.7%,106%,75.1%,111%,118%,117%,105%,99.3%,97.4%,2.86%,97.6%,84.3%,97.8%,77.5%,97.3%,104%,117%,100%,82.5%,54%,1.85%,96.3%,101%,106%,81.2%,111%,112%,110%,121%,94.6%,77.5%,1.96%
C[C@]\1(CCS\C(=N1)N)C2=CC(=C(F)C=C2F)C3=CN=CN=C3,80%,95.5%,91.6%,94.5%,90.4%,94.6%,108%,99.3%,102%,102%,29.3%,92%,84.1%,98%,104%,106%,95.7%,96.6%,114%,71.2%,5.19%,2.28%,95.1%,80.4%,107%,111%,103%,96.4%,101%,108%,95.8%,51.3%,2.95%
Clc1ccc(C2(c3ccc(-c4cn[nH]c4)cc3)CCNCC2)cc1,79.1%,97.2%,83.5%,106%,88.8%,96.4%,73.7%,87.4%,77.7%,40.1%,39.9%,95.1%,99%,110%,108%,96.1%,100%,98.7%,102%,95.9%,56.7%,61%,88.3%,91.9%,90.7%,92.7%,80.5%,90.7%,71.8%,89.5%,80.1%,57.1%,46.5%
COc1cc2nccc(Oc3ccc(NC(=O)C4(C(=O)Nc5ccc(F)cc5)CC4)cc3)c2cc1OC,87.6%,90.6%,71.2%,52.1%,53.5%,48.7%,52.9%,48.3%,47.1%,30.4%,16.7%,92.2%,89.2%,79.6%,62.2%,58.9%,55.4%,56%,51.7%,46.7%,31.2%,5.48%,71.3%,71.6%,57.2%,42.3%,47.9%,43.7%,41.1%,46.4%,40.1%,26.9%,12.6%
CC(C)(C)OC(=O)CN(Cc1ccc(Cl)cc1)Cc1ccc([N+](=O)[O-])s1,110%,111%,101%,110%,110%,115%,109%,114%,92.8%,91.5%,43.7%,98.2%,103%,87.5%,94.4%,103%,108%,90.2%,110%,99.9%,95.2%,26.1%,90.7%,97.2%,94.3%,99.8%,92.8%,99.1%,97.3%,94%,91.2%,95.1%,21.1%
NC(=O)c1ccc(-c2nc(-c3ccc4c(c3)OCCO4)c(-c3ccccn3)[nH]2)cc1,116%,124%,109%,119%,120%,136%,135%,132%,143%,130%,126%,100%,112%,96.3%,114%,105%,111%,102%,110%,119%,112%,108%,119%,126%,111%,137%,121%,118%,124%,131%,122%,138%,146%
CCNC(=O)C[C@@H]1\N=C(C2=CC=C(Cl)C=C2)/C3=C(C=CC(=C3)OC)[N]4C(=NN=C14)C,,,,,,,,,,,,,,,,,,,,,,,106%,114%,107%,105%,91.1%,90.2%,63.8%,42.9%,19.6%,6.54%,3.14%
CCCCN(CCCC)CCC(O)c1cc2c(Cl)cc(Cl)cc2c2cc(C(F)(F)F)ccc12 (stereo unspecified),92.5%,93.3%,84.3%,104%,108%,122%,36.2%,61.7%,117%,91.3%,109%,109%,105%,107%,115%,116%,141%,48.4%,52%,111%,89.7%,89%,92.1%,116%,109%,110%,105%,118%,46.2%,48.3%,104%,83.1%,105%
Cc1ccc(NC(=O)c2ccc(CN3CCN(C)CC3)cc2)cc1Nc1nccc(-c2cccnc2)n1,68.4%,92.2%,114%,101%,104%,111%,96.5%,101%,99.2%,101%,93.9%,81.2%,114%,134%,134%,124%,140%,115%,114%,109%,110%,99.4%,72%,103%,100%,94.7%,114%,107%,96.6%,112%,80.1%,100%,86.6%
CN[C@H](CC(C)C)C(=O)N[C@H]1C(=O)N[C@@H](CC(N)=O)C(=O)N[C@H]2C(=O)N[C@H]3C(=O)N[C@H](C(=O)N[C@H](C(=O)O)c4cc(O)cc(O)c4-c4cc3ccc4O)[C@H](O)c3ccc(c(Cl)c3)Oc3cc2cc(c3O[C@@H]2O[C@H](CO)[C@@H](O)[C@H](O)[C@H]2O[C@H]2C[C@](C)(N)[C@H](O)[C@H](C)O2)Oc2ccc(cc2Cl)[C@H]1O,94.2%,94.3%,124%,112%,125%,111%,128%,89%,126%,129%,122%,127%,114%,120%,130%,144%,143%,148%,126%,138%,131%,142%,112%,126%,125%,138%,126%,114%,131%,95.9%,138%,118%,110%
CN(N=O)C(=O)N[C@H]1C(O)OC(CO)[C@@H](O)[C@@H]1O (stereo partly specified),66.7%,75.4%,79.1%,74.5%,81.8%,74.6%,74%,77.2%,89.2%,40.3%,37.9%,101%,101%,106%,87.8%,106%,76.3%,86.5%,108%,119%,48.3%,51.6%,63.9%,74%,73.7%,63.8%,70.4%,55.1%,80.9%,78.5%,80.8%,32.7%,43.3%
CC[C@]1(O)C[C@H]2CN(CCC3=C([NH]C4=C3C=CC=C4)[C@@](C2)(C(=O)OC)C5=CC6=C(C=C5OC)N(C=O)[C@H]7[C@](O)([C@H](OC(C)=O)[C@]8(CC)\C=C/C[N@@]9CC[C@]67[C@H]89)C(=O)OC)C1,114%,104%,95.2%,84%,36.5%,24.7%,20.7%,23.2%,16.4%,10.7%,7.67%,70.8%,70.8%,67%,39.6%,13.4%,11%,12%,8.09%,4.93%,3.51%,2.93%,99.8%,108%,106%,90.3%,46.3%,18%,16.2%,18.1%,11.5%,6.29%,5.26%
C[C@@H]1CC[C@@]2(OC1)O[C@H]3C[C@H]4[C@@H]5C/C=C6/C[C@H](CC[C@]6(C)[C@H]5CC[C@]4(C)[C@H]3[C@@H]2C)O[C@@H]7O[C@H](CO)[C@@H](O[C@@H]8O[C@@H](C)[C@H](O)[C@@H](O)[C@H]8O)[C@H](O)[C@H]7O[C@@H]9O[C@@H](C)[C@H](O)[C@@H](O)[C@H]9O,92.6%,79.3%,97.5%,110%,114%,117%,118%,115%,111%,73.9%,8.36%,,,,,,,,,,,,110%,116%,114%,116%,139%,104%,122%,119%,119%,55%,7.66%
Nc1nc(-c2nn(Cc3ccccc3F)c3ncccc23)nc(N)c1N1CCOCC1,88.9%,87.4%,96%,96.1%,101%,110%,99.3%,116%,104%,93.5%,89.8%,98%,84.6%,103%,115%,106%,111%,111%,121%,94.2%,89.6%,80.6%,93.8%,85.6%,113%,99.9%,104%,85.2%,104%,126%,101%,96.2%,90.9%
COc1cc2c(Nc3ccc(NC(=O)c4ccccc4)cc3)ncnc2cc1OCCCN1CCOCC1,105%,119%,124%,140%,130%,133%,123%,105%,56.8%,44.5%,40.6%,122%,127%,112%,140%,136%,124%,144%,122%,55%,25.9%,22.4%,,,,,,,,,,,
